Results: US20120244094A1, “TETRAPEPTIDES FOR BRIGHTENING THE SKIN” (EVONIK GOLDSCHMIDT GMBH, priority 2009, published 2012)

Key:
[1] = system: age spots on the face; test: Reduction of age spots on the face, half-side test, chromameter skin shade ITA°; type: in vivo, human; conditions: applied twice daily for six weeks, FIG. 4; for ΔΔITA after 6-week application of the test formulations (reduction of age spots): 40 women, PKEK 0.004%, sodium ascorbyl phosphate 1.5%
Protocol: In order to quantify such age spots, color measurements of the skin are carried out. For this purpose, chromameters are used. The chromameter measures the color values L*, a* and b*. These describe a three-dimensional color space, with the help of which every perceivable color can be described, cf. FIG. 2. The end points are black (L=0) and white (L=100). In order to be able to classify the skin shade, the parameters L* and b* are required. The skin shade ITA° is given in degrees and calculated using the following formula: ITA°=[arctan((L*−50)/b*)]*180/3.14159 By means of the following study, the aim is to investigate whether the tetrapeptide PKEK is able to visibly reduce age spots. The study was carried out as a half-side test. 40 women aged between 30 and 70 years were selected who had visible age spots on the face. They were each given 2 test formulations, one for the right half of the face and the other for the left half of the face. The test formulations had to be applied twice daily over a period of six weeks. [table] Prior to the start of the study and also after 6 weeks, the color of the skin directly on the age spot was measured as well as in the adjoining area. This was performed using a CR 400 chromameter from Minolta. The skin shade ITA° was calculated both for the age spot (ITA°A) and also the adjoining area (ITA°U) and the difference was calculated: ΔITA°=ITA°U−ITA°A The greater ΔITA°, the more visible the age spot.

[2] = system: melanin concentration in the skin of the forearm; test: In vivo lightening (2-month study), melanin concentration measured with a Mexameter probe; parameters: species or system human; conditions: 0.005% PKEK formulation, 20 subjects, compared to vehicle, FIG. 1
Source text: 20 subjects wore a test formulation without peptide or with 0.005% PKEK over a period of 8 weeks on one forearm in each case. Prior to the start of the study, and also after 8 weeks, a Mexameter probe (Courage & Khazaka, Cologne) was used to measure the melanin concentration both on the inside and also on the outside of the forearm. The measurement of the melanin concentration in the skin is based on the principle of absorption/reflection. The Mexameter probe emits light of a specific wavelength which is in agreement with the absorption maxima of the melanin in the skin. The light reflected by the skin is measured and placed relative to the emitted amount of light. The resulting measurement values are given as index numbers. [table]

[3] = system: evenness of the skin appearance of dark-skinned women (Fitzpatrick type VI-V); test: Improvement in the skin appearance in dark-skinned people, visual assessment of evenness by an expert; type: in vivo, human; conditions: 0.004% PKEK face cream twice daily, FIG. 5
Protocol: For the following study, dark-skinned women (Fitzpatrick type VI-V) were used. The Fitzpatrick scale serves to organize the different skin types:
In each case, 25 female subjects were given a face cream which comprised either the tetrapeptide PKEK or no active ingredient (vehicle). They had to apply this formulation twice daily over the entire face for a period of 12 weeks. Prior to the start of the study and also after 2, 4, 8 and 12 weeks, the evenness of the skin appearance was assessed visually by an expert.
A five-part scale was used for assessing the skin appearance:
5=no contrast, very even skin appearance 4=slight contrast, slightly irregular skin appearance 3=moderate contrast, irregular skin appearance 2=high contrast, highly irregular skin appearance 1=very high contrast, very highly irregular skin appearance

Compound | ΔΔITA after 6-week application of the test formulations (reduction of age spots) [1] | difference in the melanin values after 8 weeks compared to the starting value (decrease in skin brownness) ([2]; inside of the forearm) | difference in the melanin values after 8 weeks compared to the starting value (decrease in skin brownness) ([2]; outside of the forearm) | reduction of age spots, PKEK compared with sodium ascorbyl phosphate ([1]; comparison of the single actives) | improvement in the evenness of the skin appearance (five-part visual scale) ([3]; after 12 weeks, vehicle shows no further improvement) | improvement in the evenness of the skin appearance compared with the vehicle ([3]; within the first 8 weeks, over the course of the time) | improvement in the evenness of the skin appearance (five-part visual scale) ([3]; within the first 8 weeks)
O=C1O[C@H]([C@@H](O)CO)C([O-])=C1OP(=O)([O-])[O-].[Na+].[Na+].[Na+] [sodium ascorbyl phosphate, reference compound] | visible reduction of the age spots |  |  |  |  |  | 
Pro Lys Glu Lys (PKEK) | visible reduction of the age spots | significantly greater decrease in skin brownness | significantly greater decrease in skin brownness | greater reduction than sodium ascorbyl phosphate | significantly improves the skin appearance yet further | increasingly greater over the course of the time than with the vehicle | visibly improved
